Experiment [1] concerns production of MMP-1 by normal human epidermal keratinocytes. Nature of the experiment: MMP-1 production by normal human epidermal keratinocytes cultured on plastic, ELISA. The format is cell-based. Conditions: TPA 20 ng/ml, positive control; cell culture supernatant 24 hours after treatment. As to the method:
FIG. 5 illustrates the production of MMP-1 by normal human epidermal keratinocytes. The cells cultured on plastic are exposed to SSR or treated with TPA (20 ng/ml). The MMP-1 content is evaluated by ELISA 24 hours after treatment in the cell culture supernatant.
Human keratinocytes are isolated from normal human skin (breast surgery) and cultured on a nourishing layer of mitomycin-treated 3T3 mouse fibroblasts.
The MMP-1 content is measured by ELISA (Biotrak kit RPN 2610, Amersham Biotech, France) according to the supplier's instructions.
To determine whether the irradiation of SSR type could also modulate the production of MMP-1 by keratinocytes growing on plastic, the cells were exposed to an SSR radiation. The MMP-1 extracellular contents were quantified 24 hours after UV radiation.
In general terms: ELISA stands for enzyme-linked immunosorbent assay.

The test system of experiment [2] is production of MMP-1 by normal human fibroblasts. Nature of the experiment: Keratinocyte conditioned medium transferred onto fibroblasts; MMP-1 production by ELISA. The format is cell-based. Conditions: for Production of MMP-1: sodium butyrate 3 mM, fibroblast culture supernatant 24 hours after transfer. An excerpt:
Normal human keratinocytes cultured as a monolayer on plastic were subjected to a UV-B radiation (10 mJ/cm^2). The experiment may also be performed in the presence of an SSR as defined in Example 1.
A Philips TL 20 W/12 tube equipped with a Kodacel filter to remove the wavelengths below 290 nm is used as UV-B source.
Just before irradiation, the culture medium of the sub-confluent cells (80-90% of confluence) is replaced with a PBS phosphate buffer to avoid the generation of phototoxic products by the medium. Under these conditions, no loss of viability of the cells is observed at the UV doses used.
After irradiation, the cells were placed in contact with an MEM culture medium free of serum and of growth factor, which are known to interfere with the detection or production of MMP-1, containing or not containing sodium butyrate NaBu (3 mM).
The conditioned medium of the keratinocytes (irradiated or not, in the presence or absence of sodium butyrate) was taken up 24 hours after irradiation and placed in contact with normal human fibroblasts.
The production of MMP-1 detected 24 hours later in the fibroblast culture supernatant was quantified by means of the “Biotrak MMP-1 human ELISA system” detection kit sold by Amersham, according to the supplier's indications.
The results are read using a LabSystems microplate reader equipped with a 450 nm filter.
The amount of MMP-1 is calculated relative to a calibration range prepared with a standard supplied with the kit, and is expressed in ng/ml.

Regarding `CCCCCCCCCCCCCC(=O)O[C@@H]1[C@@H](C)[C@@]2(O)[C@@H](C=C(CO)C[C@]3(O)C(=O)C(C)=C[C@@H]23)[C@H]2C(C)(C)[C@]12OC(C)=O` [TPA], in experiment [1], the “MMP-1 production by keratinocytes” value was “leads to an accumulation of MMP-1 production”.
In the case of `CCCC(=O)[O-].[Na+]` [sodium butyrate], the “Effect on the photoinduced stimulation of MMP-1 production” value in experiment [2] (UV-B irradiated keratinocyte conditioned medium) was “capable of preventing this stimulatory effect on MMP-1 production”. Further, the “Production of MMP-1” value stood at 16.97 ± 3.7 ng/mL in experiment [2] (irradiated (UV-B 10 mJ/cm^2) keratinocyte conditioned medium) and 4.84 ± 0.36 ng/mL in experiment [2] (non-irradiated keratinocyte conditioned medium). Further, the “Inhibition of basal production of MMP-1 (factor)” value in experiment [2] (non-irradiated condition, versus control conditioned medium) turned out to be 3.
